Values quoted from earlier work in patent US10463641B2, “Method for using small molecule compounds to induce human tumor cells to be directly reprogrammed into non-oncogenic cells” (Transcend Cytotherapy Co., Ltd, priority 2015, dated 2019).

What was measured:
GSK-3β = GSK-3β (Homo sapiens, UniProt P49841); conditions: vs CDC2, ERK2 and other kinases
[1] = tested on: AMPK, ALK5, KDR (VEGFR-2) and PDGFR
ALK2 = ALK2 (Homo sapiens, UniProt Q04771); conditions: DMH1
[2] = tested on: TGF-β type II receptor and activin type II receptor
BMP type II receptor = target: T1, BMP type II receptor (Homo sapiens, UniProt Q13873)
T1 sequence (Q13873 27-1038): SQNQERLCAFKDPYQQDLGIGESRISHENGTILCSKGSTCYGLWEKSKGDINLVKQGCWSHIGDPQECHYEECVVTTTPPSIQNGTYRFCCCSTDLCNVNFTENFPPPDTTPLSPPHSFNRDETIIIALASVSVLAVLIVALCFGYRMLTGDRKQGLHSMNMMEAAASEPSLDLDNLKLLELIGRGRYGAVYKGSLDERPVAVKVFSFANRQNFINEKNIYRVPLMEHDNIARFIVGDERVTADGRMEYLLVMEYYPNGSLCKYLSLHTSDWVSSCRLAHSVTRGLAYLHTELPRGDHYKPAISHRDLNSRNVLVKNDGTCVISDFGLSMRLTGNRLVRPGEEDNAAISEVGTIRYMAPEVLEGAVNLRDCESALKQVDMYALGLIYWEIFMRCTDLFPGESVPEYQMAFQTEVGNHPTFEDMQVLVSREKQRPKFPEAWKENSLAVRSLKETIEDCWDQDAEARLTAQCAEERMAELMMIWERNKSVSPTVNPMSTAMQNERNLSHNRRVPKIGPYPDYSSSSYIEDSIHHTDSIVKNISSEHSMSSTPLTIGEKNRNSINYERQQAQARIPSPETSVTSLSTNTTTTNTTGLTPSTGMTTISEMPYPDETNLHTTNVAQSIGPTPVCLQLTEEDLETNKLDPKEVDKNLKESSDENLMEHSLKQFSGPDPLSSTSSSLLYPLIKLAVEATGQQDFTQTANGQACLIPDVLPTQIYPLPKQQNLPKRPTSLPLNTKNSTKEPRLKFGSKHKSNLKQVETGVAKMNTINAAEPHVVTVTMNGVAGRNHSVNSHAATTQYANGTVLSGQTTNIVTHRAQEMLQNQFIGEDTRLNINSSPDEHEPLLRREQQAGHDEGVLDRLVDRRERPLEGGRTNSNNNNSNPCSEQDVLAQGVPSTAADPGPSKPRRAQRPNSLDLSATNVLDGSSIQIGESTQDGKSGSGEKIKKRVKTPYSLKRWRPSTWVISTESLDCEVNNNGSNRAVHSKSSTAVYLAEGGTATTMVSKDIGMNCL

BMP type I receptor ALK3 = conditions: C2C12 cells; read-out: IC50, transcription activity of BMP type I receptor ALK3
ALK6 = ALK6 (Homo sapiens, UniProt O00238)
Sequence of ALK6 (O00238 14-502): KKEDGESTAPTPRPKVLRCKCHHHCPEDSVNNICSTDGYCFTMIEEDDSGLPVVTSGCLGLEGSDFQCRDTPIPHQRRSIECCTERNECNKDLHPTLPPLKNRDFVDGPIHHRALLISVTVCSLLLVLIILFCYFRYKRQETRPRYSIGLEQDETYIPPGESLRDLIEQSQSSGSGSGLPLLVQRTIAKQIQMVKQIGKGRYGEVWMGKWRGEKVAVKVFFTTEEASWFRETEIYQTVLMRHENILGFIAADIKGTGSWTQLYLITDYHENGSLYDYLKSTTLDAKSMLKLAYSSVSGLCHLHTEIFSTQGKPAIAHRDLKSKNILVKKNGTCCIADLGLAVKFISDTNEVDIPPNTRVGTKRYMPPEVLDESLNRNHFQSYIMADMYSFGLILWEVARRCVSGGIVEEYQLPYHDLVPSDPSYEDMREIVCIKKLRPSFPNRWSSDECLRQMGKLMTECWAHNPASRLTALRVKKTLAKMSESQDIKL

ALK1 = ALK1 (Homo sapiens, UniProt P37023)
Sequence of ALK1 (P37023 22-503, species assumed): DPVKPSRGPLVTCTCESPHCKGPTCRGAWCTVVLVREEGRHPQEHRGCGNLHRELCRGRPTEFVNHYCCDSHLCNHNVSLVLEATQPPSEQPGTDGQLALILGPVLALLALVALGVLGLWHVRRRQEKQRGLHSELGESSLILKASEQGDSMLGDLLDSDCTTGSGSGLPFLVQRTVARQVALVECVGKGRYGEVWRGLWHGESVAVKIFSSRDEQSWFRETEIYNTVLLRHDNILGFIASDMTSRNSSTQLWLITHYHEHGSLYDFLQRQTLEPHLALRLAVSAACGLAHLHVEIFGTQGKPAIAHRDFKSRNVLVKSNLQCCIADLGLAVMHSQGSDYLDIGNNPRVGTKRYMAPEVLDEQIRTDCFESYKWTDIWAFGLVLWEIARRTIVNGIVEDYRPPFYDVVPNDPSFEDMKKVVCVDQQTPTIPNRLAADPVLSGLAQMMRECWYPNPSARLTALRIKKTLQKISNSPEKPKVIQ

ALK7 = target: T2, ALK7 (Homo sapiens, UniProt Q8NER5); conditions: qualitative
T2 sequence (Q8NER5 21-493): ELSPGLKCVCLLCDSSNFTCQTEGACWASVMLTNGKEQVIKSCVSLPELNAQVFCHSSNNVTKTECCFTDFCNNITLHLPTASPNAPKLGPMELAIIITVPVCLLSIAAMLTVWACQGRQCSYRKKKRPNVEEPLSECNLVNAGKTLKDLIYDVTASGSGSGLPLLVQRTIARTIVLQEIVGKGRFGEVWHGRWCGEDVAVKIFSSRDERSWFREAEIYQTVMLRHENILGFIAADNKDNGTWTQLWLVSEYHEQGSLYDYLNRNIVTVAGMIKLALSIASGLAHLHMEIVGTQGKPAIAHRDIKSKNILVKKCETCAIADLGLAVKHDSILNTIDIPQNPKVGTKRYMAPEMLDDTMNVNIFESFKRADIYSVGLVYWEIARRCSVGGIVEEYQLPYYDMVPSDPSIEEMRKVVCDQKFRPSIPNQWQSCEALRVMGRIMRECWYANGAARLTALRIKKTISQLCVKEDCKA

ALK4 = target: T3, ALK4 (Homo sapiens, UniProt P36896); conditions: ALK4 vs ALK5
T3 sequence (P36896 24-505): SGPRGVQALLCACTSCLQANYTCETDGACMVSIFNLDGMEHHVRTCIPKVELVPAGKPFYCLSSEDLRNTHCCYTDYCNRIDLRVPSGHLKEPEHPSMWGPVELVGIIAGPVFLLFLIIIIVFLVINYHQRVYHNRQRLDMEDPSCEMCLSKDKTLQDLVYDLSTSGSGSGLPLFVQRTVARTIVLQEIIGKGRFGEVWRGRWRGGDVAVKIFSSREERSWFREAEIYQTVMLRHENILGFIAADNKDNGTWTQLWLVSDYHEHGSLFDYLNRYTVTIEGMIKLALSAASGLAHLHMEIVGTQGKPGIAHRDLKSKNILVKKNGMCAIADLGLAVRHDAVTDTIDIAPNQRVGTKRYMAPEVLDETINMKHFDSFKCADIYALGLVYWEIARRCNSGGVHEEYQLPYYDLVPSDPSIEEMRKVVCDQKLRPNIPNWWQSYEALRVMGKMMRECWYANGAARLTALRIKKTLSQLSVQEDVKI

ALK5 = ALK5 (Homo sapiens, UniProt P36897); conditions: vs TGF-βRII
Sequence of ALK5 (P36897 34-503, species assumed): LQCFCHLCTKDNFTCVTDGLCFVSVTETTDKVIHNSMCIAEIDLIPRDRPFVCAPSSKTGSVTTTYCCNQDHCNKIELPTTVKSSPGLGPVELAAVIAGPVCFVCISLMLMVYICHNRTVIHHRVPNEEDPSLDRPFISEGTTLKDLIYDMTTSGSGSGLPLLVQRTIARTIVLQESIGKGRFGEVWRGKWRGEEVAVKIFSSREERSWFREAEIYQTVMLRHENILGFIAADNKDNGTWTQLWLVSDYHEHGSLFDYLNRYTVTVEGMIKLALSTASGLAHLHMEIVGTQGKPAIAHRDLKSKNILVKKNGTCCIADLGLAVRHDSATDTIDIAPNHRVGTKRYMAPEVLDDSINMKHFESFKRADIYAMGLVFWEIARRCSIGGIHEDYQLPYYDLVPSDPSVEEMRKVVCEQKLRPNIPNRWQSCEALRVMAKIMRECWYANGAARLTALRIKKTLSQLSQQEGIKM

Sequence of GSK-3β (P49841 whole entry): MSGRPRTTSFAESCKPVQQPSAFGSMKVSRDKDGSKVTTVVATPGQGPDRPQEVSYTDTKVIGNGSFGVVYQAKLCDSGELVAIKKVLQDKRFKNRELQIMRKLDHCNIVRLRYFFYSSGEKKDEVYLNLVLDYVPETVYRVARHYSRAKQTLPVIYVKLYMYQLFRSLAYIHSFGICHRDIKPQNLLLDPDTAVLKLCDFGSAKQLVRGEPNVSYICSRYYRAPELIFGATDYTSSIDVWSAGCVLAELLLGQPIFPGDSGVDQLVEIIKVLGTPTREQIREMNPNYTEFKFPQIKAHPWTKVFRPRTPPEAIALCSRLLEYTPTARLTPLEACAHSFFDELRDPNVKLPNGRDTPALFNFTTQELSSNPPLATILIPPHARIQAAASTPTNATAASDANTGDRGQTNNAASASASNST
Sequence of ALK2 (Q04771 21-509): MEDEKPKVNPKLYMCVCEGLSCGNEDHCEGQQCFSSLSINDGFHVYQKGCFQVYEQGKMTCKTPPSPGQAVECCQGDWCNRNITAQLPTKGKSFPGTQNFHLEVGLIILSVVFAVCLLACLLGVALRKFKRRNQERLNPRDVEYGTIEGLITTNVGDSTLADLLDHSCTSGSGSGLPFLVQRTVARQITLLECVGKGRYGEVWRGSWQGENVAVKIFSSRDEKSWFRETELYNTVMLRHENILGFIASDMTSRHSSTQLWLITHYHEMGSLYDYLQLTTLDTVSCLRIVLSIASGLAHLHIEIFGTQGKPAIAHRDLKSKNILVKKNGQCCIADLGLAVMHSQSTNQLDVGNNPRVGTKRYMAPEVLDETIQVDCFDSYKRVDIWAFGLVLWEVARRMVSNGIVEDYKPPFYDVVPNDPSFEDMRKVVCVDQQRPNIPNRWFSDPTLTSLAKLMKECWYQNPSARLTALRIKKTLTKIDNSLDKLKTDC

## Cc1cnc(-c2cnc(NCCNc3ccc(C#N)cn3)nc2-c2ccc(Cl)cc2Cl)[nH]1 [CHIR-99021]
GSK-3β
  inhibition of GSK-3 stronger than inhibition on CDC2, ERK2 and other kinases: 500 fold

## CC(C)Oc1ccc(-c2cnc3c(-c4ccnc5ccccc45)cnn3c2)cc1 [DMH1]
[1]
  inhibiting activity on AMPK, ALK5, KDR (VEGFR-2) and PDGFR: no inhibiting activity
ALK2
  IC50: 108 nM

## O=C(NC1CCOCC1)c1ccc(-c2cc(-c3c[nH]nc3-c3ccccn3)ccn2)cc1 [GW788388]
[2]
  inhibition of TGF-β type II receptor and activin type II receptor: also inhibiting
BMP type II receptor
  inhibition of BMP type II receptor: not BMP type II receptor

## c1ccc2c(-c3cnn4cc(-c5ccc(N6CCNCC6)cc5)cnc34)ccnc2c1 [LDN-193189]
BMP type I receptor ALK3
  IC50: 30 nM
BMP type I receptor ALK2; BMP vs TGF-β
  selectivity on BMP higher than on TGF-β: 200 fold
BMP type I receptor ALK2; C2C12 cells, read-out: IC50, transcription activity of BMP type I receptor ALK2
  IC50: 5 nM

## COc1cc(-c2cc(-c3cccc(O)c3)cnc2N)cc(OC)c1OC [Medium K02288]
ALK6
  IC50: 6.4 nM
ALK1
  IC50: 1.8 nM
And ActRIIa
  inhibiting activity on other ALK5 (3, 4, 5) and ActRIIa: slight inhibiting activity

## Cc1cccc(-c2[nH]c(C(C)(C)C)nc2-c2ccc3c(c2)OCO3)n1 [SB505124]
ALK1, 2, 3 or 6
  inhibition of ALK1, 2, 3 or 6: not ALK1, 2, 3 or 6
ALK7
  inhibition of ALK7: also inhibiting ALK7

## Cc1cccc(-c2[nH]c(C(C)(C)C)nc2-c2ccc3nccnc3c2)n1 [SB525334]
ALK2, 3 and 6
  activity to ALK2, 3 and 6: no activity
ALK4
  effect on ALK4 lower than on ALK5: 4 fold

## SD-208
ALK5
  selectivity for TGF-βRI (ALK5) higher than on TGF-βRII: more than 100 fold
